Holding throughout (format): biochemical
Experiment [1] deals with T1, human leukocyte elastase (Homo sapiens, UniProt P08246).
T1 construct: A crude elastase preparation is made by homogenizing human leukocyte granules; from tissue; host or cells: human leukocyte granules (homogenized, supernatant dialyzed; crude preparation)
T1 sequence (P08246 30-247 limits assumed): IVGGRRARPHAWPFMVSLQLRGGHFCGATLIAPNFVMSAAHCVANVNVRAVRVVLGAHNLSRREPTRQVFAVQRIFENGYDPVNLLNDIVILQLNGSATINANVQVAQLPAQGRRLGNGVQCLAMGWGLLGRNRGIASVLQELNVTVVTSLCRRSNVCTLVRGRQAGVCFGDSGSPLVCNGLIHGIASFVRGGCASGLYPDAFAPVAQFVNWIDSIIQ
As to the kind of experiment: human elastase inhibition in vitro assay, Method 2 (elastin-Congo red complex). The settings on record: 20 μg of compound; 37° C., 18 hours; Standard (complete hydrolysis by hog pancreatic elastase) 1.0; No Inhibitor 0.104. As for the experimental part:
(§1) The compound N-[[5-chloro-2-benzothiazolyl)thio]-phenylacetyl]-L-cysteine is tested for human elastase inhibition in an in vitro assay which is carried out as follows:
(§2) A crude elastase preparation is made by homogenizing human leukocyte granules [prepared according to the method of R. J. Baryk and J. Travis, Biochemistry, 15, (4), 837 (1976)], spinning and dialyzing the supernates against cold 0.05 M trisHCl/0.05 M Na Cl at a pH 8.0.
(§3) This elastase preparation is used in two assay methods to test for elastase inhibition.
In this method, the substrate used is an elastin-Congo red complex. Hydrolysis of this substrate by elastase releases Congo red, which is assayed by HPLC. The assay system also contains buffer and either 20 μg of the compound of Example 1, or no compound. The system is incubated at 37° C. for 18 hours. The standard sample represents the complete hydrolysis of the elastin-Congo red complex by hog pancreatic elastase.

Experiment [2] deals with T1, human leukocyte elastase. Nature of the experiment: human elastase inhibition in vitro assay, Method 1 (succinyl-L-alanyl-L-alanyl-L-alanyl-p-nitroanilide substrate). Here is the method:
as §1, §2, §3
400 μl of the elastase preparation, 10 μl (0.0625 mg) of succinyl-L-alanyl-L-alanyl-L-alanyl-p-nitroanilide (the enzyme substrate), 207 μl of buffer and varying amounts of the elastase inhibitor under testing are incubated at 37° C. for 19 hours. The hydrolysis is measured by use of high pressure liquid chromatography (HPLC) or by the spectrophotometric measurement of the release of p-nitroaniline at a wavelength of 410 nm.

The target in experiment [3] is Collagenase produced by normal human leukocytes or by normal human skin fibroblasts. As to the kind of experiment: in vitro collagenase inhibition assay (14C-acetylated collagen hydrolysis). The settings on record: pH 7.4, 35° C., one to five hours. As for the experimental part: The compound N-[[(5-chloro-2-benzothiazolyl)thio]-phenylacetyl]-L-cysteine is tested for collagenase inhibition in an in vitro assay based on the procedure described by A. Sellers and J.J. Reynolds, Biochem. J., 167 (1977) pp. 353-60.
Collagenase produced by normal human leukocytes or by normal human skin fibroblasts in cell cultures is purified by adsorption onto a collagen Sepharose 4B column. Prior to use in the assay, the zymogen is activated with trypsin, while the trypsin in turn, is inactivated with an excess of soybean trypsin inhibitor.
According to the assay procedure, microfuge tubes are prepared containing a total of about 150 μl. of solution containing: 25 μl. collagen (^14 C-acetylated collagen--2 mg./ml in 0.01% acetic acid); 25 μl. of 0.15 M tris/0.015 M CaCl2, pH 7.4; 75 μl. collagenase in tris buffer (0.05 M tris/0.005 M CaCl2, pH 7.4); and 25 μl. of collagenase inhibitor in tris buffer. Samples and controls are incubated at 35° C. for one to five hours depending upon potency of the enzyme. At the end of the reaction period, the tubes are spun down in a Beckman Microfuge. A 25 μl. aliquot of each tube is then assayed in a scintillation counter. Since native collagen forms insoluble fibrils under these conditions, radioactivity detected in the supernate is a measure of collagen hydrolysis. […]

One may read the IC50 as the concentration at which inhibition is half-maximal. Low readings indicate higher potency, high ones lower potency. Consider `O=C(N[C@@H](CS)C(=O)O)C(Sc1nc2cc(Cl)ccc2s1)c1ccccc1` (stereo partly drawn) [Example 1, N-[[(5-chloro-2-benzothiazolyl)thio]phenylacetyl]-L-cysteine], for which the “Relative Release of Congo Red” value in experiment [1] stood at 0.000. Also, the 50% inhibitory concentration (IC50) in experiment [2] (37° C., 19 hours, HPLC or 410 nm) was 4.78 µM; in experiment [3] (Experiment 1: Collagen I as substrate), 5.7 µM; in experiment [3] (Experiment 2: Collagen II as substrate), 12.5 µM. Also, the “inhibitory effect on the enzymatic activity of human leukocyte elastase (in words)” value in experiment [2] (conclusion from Methods 1 and 2) is “strong inhibitory effect”.

Source of the values: patent publication US4609667A, “Inhibitor of mammalian collagenase and elastase” (American Home Products Corporation, priority 1985, dated 1986).
